For assay [1], the system named is CD4 T-cells co-cultured with MoDCs. Briefly: Mixed lymphocyte reaction (MLR) assay. It is filed as cell-based, human. The settings on record: for CD3+ T cell numbers / production of IFNγ (secreted) / proportion of CD3+ T-cells that produce IFNγ: MLR, BCL-2 inhibitors at 1 μM. How it is done:
Mixed Lymphocyte Reaction (MLR) assay was used to examine venetoclax effect on T-cell function in response to immune stimulation. Monocytic-derived dendritic cells (MoDCs) were generated from fresh human blood. PBMCs were isolated using a Ficoll gradient. The PBMCs were allowed to adhere for 2 hours. After 2 hours, cells in suspension were removed. Fresh AIM V™ medium (ThermoFisher cat. #12055091) supplemented with granulocyte-macrophage colony-stimulating factor (GM-CSF, 80 ng/mL) and IL-4 (50 ng/mL) was added to the culture. After 5 days, the MoDCs were stimulated with IL-1α and TNF-α (0.2 ng/mL each) for 48 hours to increase major histocompatibility complex class II molecules (MHCII) expression. These activated MoDCs were then co-cultured with CD4 T-cells (Biospecialty Corp.) at a ratio of 10:1 (T-cells:MoDCs) in a mixed lymphocyte reaction (MLR). The cells were treated with control IgG (Isotype) or anti-PD-1 antibody (nivolumab or ABBV-181 along with either dimethyl sulfoxide (DMSO) or BCL-2 inhibitors venetoclax (Compound (I)) or Compounds (II) or (III). Antibodies were added at 10 μg/mL and the compound concentrations of venetoclax were as indicated in FIG. 11. The MLR was cultured for 5 days, after which the cells were analyzed by flow cytometry using an LSRFortessa™ X-20 instrument (BD Biosciences) to determine cell number and functional cytokine (IFNγ) responses.

Another assay has as its system EMT6 tumors. Briefly: EMT6 mouse mammary carcinoma syngeneic model. The format is in vivo. The note with it: for complete responses (CR): EMT6, groups of 10 mice. The procedure: All experiments were conducted in compliance with the National Institutes of Health Guide for Care and Use of Laboratory Animals guidelines in a facility accredited by the Association for the Assessment and Accreditation of Laboratory Animal Care (AAALAC). BALB/c, C57BL/6, CB6F1 (C57BL/6 bred with BALB/c) and SCID mice were obtained from Charles River (Wilmington, Mass.). SCID mice have severe combined immune deficiency (SCID) and are characterized by an absence of functional T- and B-cells.
EMT6, mouse mammary carcinoma and CT26, mouse colon carcinoma, cell lines were obtained from ATCC (Manassas, Va.). MC38, mouse colon carcinoma cell line was obtained from National Cancer Institute (NCI).
Compound (I),venetoclax, was formulated in 10% ethanol+30% PEG 400+60% Phosal® 50PG. Venetoclax was administered orally once a day for 14 days at 50 mg/kg/day.
1×10^5 CT26, EMT6 or MC38 cells were subcutaneously injected with Matrigel into the flanks of BALB/c, CB6F1 or C57BL/6 mice, respectively. Seven days later, mice were randomized to treatment groups of vehicle, venetoclax, anti-PD-1/PD-L1 or the combination of venetoclax and anti-PD-1/PD-L1. Tumor volume was determined via measurements of the length (L) and width (W) of the tumor with electronic calipers and the volume was calculated according to the following equation: V=L×W2/2 using Study Director Version 2.1.11 (Studylog Systems Inc., South San Francisco). Complete response (CR) was defined as reduction in tumor volume to ≤25 mm^3 over at least 3 successive measurements.

We go through 4 compounds from patent US20190336496A1, “SELECTIVE BCL-2 INHIBITORS IN COMBINATION WITH AN ANTI-PD-1 OR AN ANTI-PD-L1 ANTIBODY FOR THE TREATMENT OF CANCERS” (AbbVie Inc., priority 2018, published 2019).

On to `O=C(c1cc(-c2cc3c(cc2C(=O)N2Cc4ccccc4C[C@H]2CN2CCOCC2)OCO3)n2c1CCCC2)N(c1ccccc1)c1ccc(O)cc1` [Compound (III)], for which, in assay [1], the “CD3+ T cell numbers” value is “declined comparably”, the “production of IFNγ (secreted)” value is on record as “not antagonized” and the “proportion of CD3+ T-cells that produce IFNγ” value is “increase”.
In the case of “anti hu PD-L1 YW243.55.S70 [mu IgG2 a/k]: mouse anti-PD-L1 antibody, heavy chain SEQ ID NO: 5, light chain SEQ ID NO: 6”, the “complete responses (CR)” value is 3 in the assay on EMT6 tumors and 3/10 with EMT6 tumors (listed as anti-PD-L1 antibody). The “tumor growth inhibition (TGI)” value in the assay on EMT6 tumors (EMT6 in CB6F1 mice, venetoclax 50 mg/kg/day orally 14 days, antibody 10 mg/kg IP every 4 days, 3 times, day 25) amounted to 89%.
On to `Cn1ccc2cc(N(C(=O)c3cc(-c4cc5c(cc4C(=O)N4Cc6ccccc6C[C@H]4CN4CCOCC4)OCO5)n4c3CCCC4)c3ccc(O)cc3)ccc21` [Compound (II)], for which, in assay [1], the “CD3+ T cell numbers” value was “declined comparably”, the “production of IFNγ (secreted)” value was “not antagonized” and the “proportion of CD3+ T-cells that produce IFNγ” value is on record as “increase”.
For “nivolumab: anti-PD-1 antibody, heavy chain SEQ ID NO: 9, light chain SEQ ID NO: 10”, the “proportion of CD4+ T-cells that produce IFNγ” value in assay [1] (MLR 5 days, with isotype control or anti-PD-1 antibody) is recorded as “increased”. In addition, the “number of CD4+ T-cells” value in assay [1] (MLR cultured 5 days, antibodies at 10 μg/mL) was “increased”.
